Measured values as given in patent US9682995B2, “Amino-substituted isothiazoles” (BAYER PHARMA AKTIENGESELLSCHAFT, priority 2013, dated 2017).

Tests used:
Assay in all cases: Kinase Profiling (KINOMEscan)
Type in all cases: binding
[1] = molecular target: 456 kinases (of these 395 non-mutant kinases) (Homo sapiens, UniProt P31152); conditions: ERK4; 10 μM
[2] = molecular target: 456 kinases (of these 395 non-mutant kinases) (Homo sapiens, UniProt O75582); conditions: 10 μM
[3] = molecular target: 456 kinases (of these 395 non-mutant kinases) (Homo sapiens, UniProt Q15303); conditions: ERBB4; 10 μM
[4] = molecular target: 456 kinases (of these 395 non-mutant kinases) (Homo sapiens, UniProt O00238); conditions: BMPR1B; 10 μM
[5] = molecular target: 456 kinases (of these 395 non-mutant kinases) (Homo sapiens, UniProt Q16659); conditions: ERK3; 10 μM
[6] = molecular target: 456 kinases (of these 395 non-mutant kinases) (Homo sapiens, UniProt Q96NX5); conditions: CAMK1G; 10 μM
[7] = molecular target: 456 kinases (of these 395 non-mutant kinases) (Homo sapiens, UniProt Q04771); conditions: ACVR1; 10 μM
[8] = molecular target: 456 kinases (of these 395 non-mutant kinases) (Homo sapiens, UniProt P42684); conditions: ABL2; 10 μM
[9] = molecular target: 456 kinases (of these 395 non-mutant kinases) (Homo sapiens, UniProt Q9Y2U5); conditions: MAP3K2; 10 μM
[10] = molecular target: 456 kinases (of these 395 non-mutant kinases) (Homo sapiens, UniProt P42336, E545K); conditions: PIK3CA(E545K); 10 μM
[11] = molecular target: 456 kinases (of these 395 non-mutant kinases) (Homo sapiens, UniProt Q15746); conditions: MYLK; 10 μM
[12] = molecular target: 456 kinases (of these 395 non-mutant kinases) (Homo sapiens, UniProt P07949, V804L); conditions: RET(V804L); 10 μM
[13] = molecular target: 456 kinases (of these 395 non-mutant kinases) (Homo sapiens, UniProt Q8N4C8); conditions: MINK; 10 μM
[14] = molecular target: 456 kinases (of these 395 non-mutant kinases) (Homo sapiens, UniProt P51817); conditions: PRKX; 10 μM
[15] = molecular target: 456 kinases (of these 395 non-mutant kinases) (Homo sapiens, UniProt Q9BZL6); conditions: PRKD2; 10 μM
[16] = molecular target: 456 kinases (of these 395 non-mutant kinases) (Homo sapiens, UniProt P04049); conditions: RAF1; 10 μM
[17] = molecular target: 456 kinases (of these 395 non-mutant kinases) (Homo sapiens, UniProt P21802); conditions: FGFR2; 10 μM
[18] = molecular target: 456 kinases (of these 395 non-mutant kinases) (Homo sapiens, UniProt O15111); conditions: IKK-alpha; 10 μM
[19] = molecular target: 456 kinases (of these 395 non-mutant kinases) (Homo sapiens, UniProt P21709); conditions: EPHA1; 10 μM
[20] = molecular target: 456 kinases (of these 395 non-mutant kinases) (Homo sapiens, UniProt O96017); conditions: CHEK2; 10 μM
[21] = molecular target: 456 kinases (of these 395 non-mutant kinases) (Homo sapiens, UniProt O60674); conditions: JAK2(JH1domain-catalytic); 10 μM
[22] = molecular target: 456 kinases (of these 395 non-mutant kinases) (Homo sapiens, UniProt Q96D53); conditions: ADCK4; 10 μM
[23] = molecular target: 456 kinases (of these 395 non-mutant kinases) (Homo sapiens, UniProt P45985); conditions: MEK4; 10 μM
[24] = molecular target: 456 kinases (of these 395 non-mutant kinases) (Homo sapiens, UniProt Q02750); conditions: MEK1; 10 μM
[25] = molecular target: 456 kinases (of these 395 non-mutant kinases) (Homo sapiens, UniProt Q16512); conditions: PKN1; 10 μM
[26] = molecular target: 456 kinases (of these 395 non-mutant kinases) (Homo sapiens, UniProt P00533, T790M); conditions: EGFR(T790M); 10 μM
[27] = molecular target: 456 kinases (of these 395 non-mutant kinases) (Homo sapiens, UniProt P29317); conditions: EPHA2; 10 μM
[28] = molecular target: 456 kinases (of these 395 non-mutant kinases) (Homo sapiens, UniProt Q9BYT3); conditions: STK33; 10 μM
[29] = molecular target: 456 kinases (of these 395 non-mutant kinases) (Homo sapiens, UniProt O75116); conditions: ROCK2; 10 μM
[30] = molecular target: 456 kinases (of these 395 non-mutant kinases) (Homo sapiens, UniProt P36896); conditions: ACVR1B; 10 μM
[31] = molecular target: 456 kinases (of these 395 non-mutant kinases) (Homo sapiens, UniProt P00519, Y253F); conditions: ABL1(Y253F)-phosphorylated; 10 μM
[32] = molecular target: 456 kinases (of these 395 non-mutant kinases) (Homo sapiens, UniProt Q8IW41); conditions: MAPKAPK5; 10 μM

456 kinases (of these 395 non-mutant kinases) (Homo sapiens, UniProt P36896), sequence (P36896 24-505 limits assumed, stated change not applied): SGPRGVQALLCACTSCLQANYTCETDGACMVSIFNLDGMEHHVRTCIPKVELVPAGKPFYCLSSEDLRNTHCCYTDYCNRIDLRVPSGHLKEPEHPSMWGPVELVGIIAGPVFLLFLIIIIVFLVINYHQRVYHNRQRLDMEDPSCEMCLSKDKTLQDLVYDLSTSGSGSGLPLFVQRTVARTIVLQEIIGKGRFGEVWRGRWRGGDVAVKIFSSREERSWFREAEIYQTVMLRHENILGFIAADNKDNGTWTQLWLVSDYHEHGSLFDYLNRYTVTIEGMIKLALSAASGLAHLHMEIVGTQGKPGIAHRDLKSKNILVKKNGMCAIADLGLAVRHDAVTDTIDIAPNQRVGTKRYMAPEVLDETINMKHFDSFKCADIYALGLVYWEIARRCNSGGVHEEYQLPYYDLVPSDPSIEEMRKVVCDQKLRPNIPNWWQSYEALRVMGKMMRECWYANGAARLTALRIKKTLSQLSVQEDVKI
456 kinases (of these 395 non-mutant kinases) (Homo sapiens, UniProt Q16512), sequence (Q16512 2-942 limits assumed, stated change not applied): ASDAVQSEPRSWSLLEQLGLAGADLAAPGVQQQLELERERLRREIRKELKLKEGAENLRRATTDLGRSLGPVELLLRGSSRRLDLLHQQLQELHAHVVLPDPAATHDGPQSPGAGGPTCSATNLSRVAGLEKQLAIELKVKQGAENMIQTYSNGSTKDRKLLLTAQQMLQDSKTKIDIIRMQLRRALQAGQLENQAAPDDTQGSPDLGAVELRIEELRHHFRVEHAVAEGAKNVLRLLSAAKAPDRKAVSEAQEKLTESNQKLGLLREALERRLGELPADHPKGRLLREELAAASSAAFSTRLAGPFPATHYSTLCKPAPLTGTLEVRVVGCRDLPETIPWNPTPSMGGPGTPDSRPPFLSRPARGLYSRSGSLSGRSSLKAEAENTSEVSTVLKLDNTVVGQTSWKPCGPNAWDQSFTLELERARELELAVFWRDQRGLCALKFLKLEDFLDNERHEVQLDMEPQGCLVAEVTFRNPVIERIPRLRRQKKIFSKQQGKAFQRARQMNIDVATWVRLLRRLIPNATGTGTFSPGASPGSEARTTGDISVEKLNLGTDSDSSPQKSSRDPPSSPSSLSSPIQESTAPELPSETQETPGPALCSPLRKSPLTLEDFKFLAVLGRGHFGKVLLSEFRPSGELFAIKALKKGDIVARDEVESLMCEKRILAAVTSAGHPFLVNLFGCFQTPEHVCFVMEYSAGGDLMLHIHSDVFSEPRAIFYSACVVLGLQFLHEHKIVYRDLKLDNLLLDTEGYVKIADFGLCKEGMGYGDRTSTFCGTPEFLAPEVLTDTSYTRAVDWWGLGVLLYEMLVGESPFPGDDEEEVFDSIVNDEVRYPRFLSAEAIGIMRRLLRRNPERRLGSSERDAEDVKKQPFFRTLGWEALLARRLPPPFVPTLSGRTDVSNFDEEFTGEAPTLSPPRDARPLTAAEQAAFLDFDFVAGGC
456 kinases (of these 395 non-mutant kinases) (Homo sapiens, UniProt P29317), sequence (P29317 24-976 limits assumed, change not shown): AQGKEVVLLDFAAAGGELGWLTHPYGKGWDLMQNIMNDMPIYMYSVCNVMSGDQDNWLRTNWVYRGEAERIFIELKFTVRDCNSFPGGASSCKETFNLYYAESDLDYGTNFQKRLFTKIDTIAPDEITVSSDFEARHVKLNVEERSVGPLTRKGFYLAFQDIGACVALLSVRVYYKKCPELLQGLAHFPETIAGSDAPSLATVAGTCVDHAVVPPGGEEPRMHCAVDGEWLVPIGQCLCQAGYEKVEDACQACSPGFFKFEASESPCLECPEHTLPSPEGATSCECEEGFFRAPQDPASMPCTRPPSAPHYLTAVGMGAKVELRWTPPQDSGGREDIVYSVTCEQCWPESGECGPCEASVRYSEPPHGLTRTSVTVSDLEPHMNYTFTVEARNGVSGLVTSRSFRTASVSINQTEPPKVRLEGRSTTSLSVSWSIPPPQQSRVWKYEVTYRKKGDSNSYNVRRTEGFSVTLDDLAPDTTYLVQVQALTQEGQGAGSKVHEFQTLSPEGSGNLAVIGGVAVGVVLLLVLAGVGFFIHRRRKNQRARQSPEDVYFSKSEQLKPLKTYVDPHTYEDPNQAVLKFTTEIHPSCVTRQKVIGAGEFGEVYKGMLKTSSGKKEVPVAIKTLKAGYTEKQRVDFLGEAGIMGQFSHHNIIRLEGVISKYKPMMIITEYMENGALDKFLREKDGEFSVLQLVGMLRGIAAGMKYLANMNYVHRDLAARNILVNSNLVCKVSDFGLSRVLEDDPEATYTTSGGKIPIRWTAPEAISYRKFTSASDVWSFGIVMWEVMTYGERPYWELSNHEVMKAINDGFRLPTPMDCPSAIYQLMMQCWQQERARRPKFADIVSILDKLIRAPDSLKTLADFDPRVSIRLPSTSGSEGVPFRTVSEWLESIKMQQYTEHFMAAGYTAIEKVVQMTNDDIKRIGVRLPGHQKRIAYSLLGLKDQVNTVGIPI
456 kinases (of these 395 non-mutant kinases) (Homo sapiens, UniProt Q15303), sequence (Q15303 26-1308 limits assumed, change not shown): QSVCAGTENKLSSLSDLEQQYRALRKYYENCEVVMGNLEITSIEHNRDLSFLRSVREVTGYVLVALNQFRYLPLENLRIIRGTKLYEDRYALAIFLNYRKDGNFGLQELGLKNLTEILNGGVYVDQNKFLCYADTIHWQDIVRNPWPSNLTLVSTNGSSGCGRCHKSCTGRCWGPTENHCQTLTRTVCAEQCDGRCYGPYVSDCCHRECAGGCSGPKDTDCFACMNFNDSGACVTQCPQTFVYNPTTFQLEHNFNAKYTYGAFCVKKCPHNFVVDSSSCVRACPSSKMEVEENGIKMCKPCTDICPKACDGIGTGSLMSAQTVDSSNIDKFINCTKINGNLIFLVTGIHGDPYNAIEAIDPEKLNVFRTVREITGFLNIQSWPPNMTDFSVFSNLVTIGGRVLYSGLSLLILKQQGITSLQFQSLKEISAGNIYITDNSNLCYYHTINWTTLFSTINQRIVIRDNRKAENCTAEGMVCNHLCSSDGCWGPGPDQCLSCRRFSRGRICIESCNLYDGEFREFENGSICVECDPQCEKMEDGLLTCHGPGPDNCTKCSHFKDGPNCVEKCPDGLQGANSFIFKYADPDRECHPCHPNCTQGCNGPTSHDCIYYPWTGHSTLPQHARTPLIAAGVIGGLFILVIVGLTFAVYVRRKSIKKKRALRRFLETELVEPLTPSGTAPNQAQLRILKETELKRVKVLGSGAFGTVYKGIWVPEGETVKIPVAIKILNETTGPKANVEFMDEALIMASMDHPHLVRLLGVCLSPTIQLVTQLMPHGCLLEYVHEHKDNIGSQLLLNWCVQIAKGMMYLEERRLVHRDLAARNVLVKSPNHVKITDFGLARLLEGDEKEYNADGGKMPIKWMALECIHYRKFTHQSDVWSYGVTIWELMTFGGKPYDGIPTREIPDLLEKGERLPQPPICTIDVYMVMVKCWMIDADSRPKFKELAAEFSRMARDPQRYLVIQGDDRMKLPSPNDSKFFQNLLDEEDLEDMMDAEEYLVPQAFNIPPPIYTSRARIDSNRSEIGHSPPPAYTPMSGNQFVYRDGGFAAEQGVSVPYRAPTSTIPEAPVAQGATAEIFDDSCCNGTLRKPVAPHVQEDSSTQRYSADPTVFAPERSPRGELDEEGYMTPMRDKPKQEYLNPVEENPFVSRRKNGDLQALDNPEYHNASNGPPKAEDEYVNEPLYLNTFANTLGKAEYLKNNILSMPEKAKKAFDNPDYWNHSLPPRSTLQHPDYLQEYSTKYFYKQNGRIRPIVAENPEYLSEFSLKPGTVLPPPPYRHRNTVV
456 kinases (of these 395 non-mutant kinases) (Homo sapiens, UniProt P21709), sequence (P21709 26-976 limits assumed, change not shown): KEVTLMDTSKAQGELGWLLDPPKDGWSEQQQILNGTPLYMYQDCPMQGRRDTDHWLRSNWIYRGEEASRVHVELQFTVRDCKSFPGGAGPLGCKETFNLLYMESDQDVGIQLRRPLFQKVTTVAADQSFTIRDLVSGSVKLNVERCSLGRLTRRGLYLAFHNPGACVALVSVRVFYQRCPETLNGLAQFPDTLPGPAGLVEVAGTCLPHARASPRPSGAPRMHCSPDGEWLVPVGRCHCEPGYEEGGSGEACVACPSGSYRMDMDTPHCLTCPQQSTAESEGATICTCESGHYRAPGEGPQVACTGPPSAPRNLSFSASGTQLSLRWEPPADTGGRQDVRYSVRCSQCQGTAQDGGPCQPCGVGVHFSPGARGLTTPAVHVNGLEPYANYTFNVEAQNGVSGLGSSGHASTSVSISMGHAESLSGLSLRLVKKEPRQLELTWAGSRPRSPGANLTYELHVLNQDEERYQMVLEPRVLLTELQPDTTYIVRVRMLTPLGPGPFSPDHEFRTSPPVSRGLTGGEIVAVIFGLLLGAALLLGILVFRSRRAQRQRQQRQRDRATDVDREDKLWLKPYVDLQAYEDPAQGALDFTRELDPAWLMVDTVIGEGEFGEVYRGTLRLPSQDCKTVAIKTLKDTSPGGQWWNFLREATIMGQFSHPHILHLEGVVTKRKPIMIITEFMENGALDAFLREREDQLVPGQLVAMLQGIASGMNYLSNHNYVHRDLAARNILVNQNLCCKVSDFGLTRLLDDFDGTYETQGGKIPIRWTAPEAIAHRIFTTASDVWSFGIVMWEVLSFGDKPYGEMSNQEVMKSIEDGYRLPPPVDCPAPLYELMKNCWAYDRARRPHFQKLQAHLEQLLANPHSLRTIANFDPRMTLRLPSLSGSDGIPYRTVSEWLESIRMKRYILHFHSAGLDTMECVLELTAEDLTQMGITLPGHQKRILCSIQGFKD
456 kinases (of these 395 non-mutant kinases) (Homo sapiens, UniProt Q04771), sequence (Q04771 21-509 limits assumed, change not shown): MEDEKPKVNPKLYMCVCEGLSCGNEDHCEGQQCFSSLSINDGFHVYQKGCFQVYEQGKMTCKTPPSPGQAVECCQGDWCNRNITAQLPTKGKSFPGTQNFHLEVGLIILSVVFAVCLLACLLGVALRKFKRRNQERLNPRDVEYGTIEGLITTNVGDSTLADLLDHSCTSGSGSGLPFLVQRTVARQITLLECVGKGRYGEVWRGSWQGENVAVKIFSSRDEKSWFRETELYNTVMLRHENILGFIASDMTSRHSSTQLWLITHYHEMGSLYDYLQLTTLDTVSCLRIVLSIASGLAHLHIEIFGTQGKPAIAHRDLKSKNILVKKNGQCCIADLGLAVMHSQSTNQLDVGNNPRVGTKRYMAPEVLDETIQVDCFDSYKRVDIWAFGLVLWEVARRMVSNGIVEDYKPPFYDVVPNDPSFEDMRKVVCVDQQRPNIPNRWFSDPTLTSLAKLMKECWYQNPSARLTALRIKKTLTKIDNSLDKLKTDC

Structure (SMILES): CCc1ccccc1NC(=O)c1c(C)nsc1Nc1cnc2cc(F)ccc2n1 [Example 20, N-(2-Ethylphenyl)-5-[(6-fluoroquinoxalin-2-yl)amino]-3-methyl-1,2-thiazole-4-carboxamide]
- % Ctrl @ 10 μM [1]: 88 % Ctrl
- % Ctrl @ 10 μM ([2]; RPS6KA5(Kin.Dom.1-N-terminal)): 100 % Ctrl
- % Ctrl @ 10 μM ([2]; RPS6KA5(Kin.Dom.2-C-terminal)): 100 % Ctrl
- % Ctrl @ 10 μM [3]: 100 % Ctrl
- % Ctrl @ 10 μM [4]: 95 % Ctrl
- % Ctrl @ 10 μM [5]: 68 % Ctrl
- % Ctrl @ 10 μM [6]: 86 % Ctrl
- % Ctrl @ 10 μM [7]: 77 % Ctrl
- % Ctrl @ 10 μM [8]: 100 % Ctrl
- % Ctrl @ 10 μM [9]: 100 % Ctrl
- % Ctrl @ 10 μM [10]: 84 % Ctrl
- % Ctrl @ 10 μM [11]: 87 % Ctrl
- % Ctrl @ 10 μM [12]: 89 % Ctrl
- % Ctrl @ 10 μM [13]: 100 % Ctrl
- % Ctrl @ 10 μM [14]: 75 % Ctrl
- % Ctrl @ 10 μM [15]: 91 % Ctrl
- % Ctrl @ 10 μM [16]: 100 % Ctrl
- % Ctrl @ 10 μM [17]: 80 % Ctrl
- % Ctrl @ 10 μM [18]: 84 % Ctrl
- % Ctrl @ 10 μM [19]: 95 % Ctrl
- % Ctrl @ 10 μM [20]: 100 % Ctrl
- % Ctrl @ 10 μM [21]: 100 % Ctrl
- % Ctrl @ 10 μM [22]: 100 % Ctrl
- % Ctrl @ 10 μM [23]: 67 % Ctrl
- % Ctrl @ 10 μM [24]: 97 % Ctrl
- % Ctrl @ 10 μM [25]: 61 % Ctrl
- % Ctrl @ 10 μM [26]: 100 % Ctrl
- % Ctrl @ 10 μM [27]: 88 % Ctrl
- % Ctrl @ 10 μM [28]: 100 % Ctrl
- % Ctrl @ 10 μM [29]: 100 % Ctrl
- % Ctrl @ 10 μM [30]: 100 % Ctrl
- % Ctrl @ 10 μM [31]: 100 % Ctrl
- % Ctrl @ 10 μM [32]: 100 % Ctrl
